Experimental data published in US20260078130A1, “NAMPT MODULATORS, PREPARATIONS, AND USES THEREOF” (SIRONAX LTD., priority 2022, published 2026).
Like-named read-outs stand apart in the source and are kept apart here.

Assays:
[1] = target: T1, human enzyme NAMPT (full length) (Homo sapiens, UniProt P43490); assay: NMN fluorescence biochemical assay (stimulation of NMN synthesis by NAMPT); conditions: for EC50: concentration giving half-maximal activation, read-out: Enzymatic EC50; for Enzymatic Emax: fold change of maximal activation compared to DMSO
T1 construct: human enzyme NAMPT (full length)
T1 sequence (P43490 whole entry): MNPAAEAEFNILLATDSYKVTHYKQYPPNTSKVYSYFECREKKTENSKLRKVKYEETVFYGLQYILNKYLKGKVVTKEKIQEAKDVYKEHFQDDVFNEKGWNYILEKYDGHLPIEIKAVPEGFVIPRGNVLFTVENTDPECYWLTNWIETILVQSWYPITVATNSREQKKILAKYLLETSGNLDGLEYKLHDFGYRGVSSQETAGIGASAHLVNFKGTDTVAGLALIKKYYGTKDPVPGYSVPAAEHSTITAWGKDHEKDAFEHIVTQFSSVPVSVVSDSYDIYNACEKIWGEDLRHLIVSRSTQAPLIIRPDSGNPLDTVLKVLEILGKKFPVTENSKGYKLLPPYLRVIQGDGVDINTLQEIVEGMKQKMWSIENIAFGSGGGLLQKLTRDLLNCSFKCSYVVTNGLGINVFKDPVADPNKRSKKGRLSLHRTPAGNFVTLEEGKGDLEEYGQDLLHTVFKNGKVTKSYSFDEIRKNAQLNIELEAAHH
Summary of the method: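 Full-length human NAMPT (100 nM) was preincubated 15 min at 37 °C with compound in 50 mM Tris-HCl pH 7.5, 10 mM MgCl2, 2 mM DTT, then reacted 1 h at 37 °C with 50 μM NAM, 100 μM PRPP, 4 mM ATP (stated solution concentrations). NMN was derivatised with acetophenone/KOH then formic acid and read at Ex/Em 382/445 nm; EC50 and Emax (fold over DMSO) reported.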

[2] = system: endogenous NAMPT in U2OS cells; assay: Cellular NAD+ modulation assay (NAD/NADH-Glo, U2OS cells); format: cell-based; conditions: Homo sapiens; for maximal fold induction: read-out: Cellular Emax
Description: Certain compounds described herein were also assayed for their ability to stimulate the endogenous NAMPT in a native cellular environment in a cellular NAD^+ modulation assay. U2OS cells were grown in McCoy's 5A medium with 10% fetal bovine serum, in a humidified incubator with an atmosphere of 95% air and 5% CO2 at 37° C. The assays were initiated by plating 30 μL of U2OS cells in a culture medium with 10% fetal bovine serum, at a density of 3000 cells per well in a Corning® 384-well White/Clear Bottom Polystyrene Microplate. The plates were incubated in 37T incubators for a period of 16 hours. Test compounds with a series of concentrations in DMSO were added to the plates in a volume of 150 nL using Echo Liquid handlers. The plates are then incubated for 24 hours. The medium was removed from the wells, then 10 μL PBS was added to each well. To each well of cells in 10 μL of PBS, 10 μL of base solution with 1% DTAB was added. The plate was briefly mixed on a plate shaker to ensure homogeneity and cell lysis (5 mins). 10p L of 0.4N HCl was added per well. The plate was coved, and all samples were incubated for 15 minutes at 60° C. Then the plate was equilibrated for 10 minutes at room temperature. 10 μL of 0.5M Trizma® base was added to each well of acid-treated cells to neutralize the acid. Finally, 30 μL of NAD/NADH-Glo™ Detection Reagent was added. The plate was gently shaken to mix the samples. The plate was incubated for 40 minutes at room temperature. Luminescence was recorded using a luminometer. The potency measurements for the test compounds were quantified and represented as EC50 (concentration of a compound that gives half-maximal activation) and Emax (fold change of a compound's maximal activation compared to DMSO).

[3] = NMN fluorescence assay, purified human NAMPT 100 nM
[4] = 24 hours incubation, cellular NAD+
[5] = NMN synthesis by purified human NAMPT (100 nM)
[6] = 24 hours incubation with compound

| SMILES | EC50 [1, 3] | Enzymatic Emax [1] | EC50 [2, 4] | maximal fold induction [2, 4] | EC50 [1, 5] | EC50 [2, 6] | maximal fold induction [2, 6] |
| --- | --- | --- | --- | --- | --- | --- | --- |
| Cn1ncc(Cl)c1CC1c2ccccc2C(=O)N1C[C@@H]1C[C@@H]1c1c[nH]nn1 (relative stereo) [Compound 604, cis 2-((2-(1H-1,2,3-triazol-4-yl)cyclopropyl)methyl)-3-((4-chloro-1-methyl-1H-pyrazol-5-yl)methyl)isoindolin-1-one] | ≥ 5 µM | C (2≥C) | 5 to 50 µM | ≤ 1.2 |  |  |  |
| CC1c2cc(-c3cnco3)ccc2C(=O)N1Cc1ccc2[nH]c(=O)oc2c1 (single isomer, unassigned) [Compound 162] |  | B (3≥B>2) |  |  | 0.5 to 5 µM | 5 to 50 µM | > 1.5 |
| Cc1ccc2c(c1)C(C)N(Cc1ccc3[nH]c(=O)oc3c1)C2=O (single isomer, unassigned) [Compound 163] |  | A (A>3) |  |  | ≥ 5 µM | 0.5 to 5 µM | > 1.5 |
| C[C@H]1c2cc(C#N)ccc2C(=O)N1Cc1ccc2[nH]c(=O)oc2c1 (single isomer, unassigned) [Compound 186] |  | B (3≥B>2) |  |  | ≥ 5 µM | 0.5 to 5 µM | > 1.5 |
| CC1c2cc(CN3CC4(COC4)C3)ccc2C(=O)N1Cc1ccc2[nH]c(=O)oc2c1 (single isomer, unassigned) [Compound 187] |  | B (3≥B>2) |  |  | 0.5 to 5 µM | 0.5 to 5 µM | > 1.5 |
| COC1CCN(Cc2ccc3c(c2)[C@H](C)N(Cc2ccc4[nH]c(=O)oc4c2)C3=O)C1 (single isomer, unassigned) [Compound 188] |  | B (3≥B>2) |  |  | ≥ 5 µM | 0.5 to 5 µM | > 1.5 |
| CC1c2cc(C3COC3)ccc2C(=O)N1Cc1ccc2[nH]c(=O)oc2c1 (single isomer, unassigned) [Compound 198] |  | B (3≥B>2) |  |  | 0.5 to 5 µM | 0.5 to 5 µM | > 1.5 |
| CC1c2cc(NC3CC3)ccc2C(=O)N1Cc1ccc2[nH]c(=O)oc2c1 (single isomer, unassigned) [Compound 242] |  | A (A>3) |  |  | ≥ 5 µM | 0.5 to 5 µM | > 1.5 |
| COc1ccc2c(c1)C(C)N(Cc1ccc3[nH]c(=O)oc3c1)C2=O (single isomer, unassigned) [Compound 243] |  | A (A>3) |  |  | ≥ 5 µM | 0.5 to 5 µM | > 1.5 |
| CC1c2cc(CN(C)C)ccc2C(=O)N1Cc1ccc2[nH]c(=O)oc2c1 (single isomer, unassigned) [Compound 273] |  | B (3≥B>2) |  |  | ≥ 5 µM | 0.5 to 5 µM | 1.2 to 1.5 |
| CC1c2cc(CN3CCC3)ccc2C(=O)N1Cc1ccc2[nH]c(=O)oc2c1 (single isomer, unassigned) [Compound 274] |  | B (3≥B>2) |  |  | ≥ 5 µM | 5 to 50 µM | 1.2 to 1.5 |
| CC1c2cc(C3CCCC3)ccc2C(=O)N1Cc1ccc2[nH]c(=O)oc2c1 (single isomer, unassigned) [Compound 304] |  | C (2≥C) |  |  | 0.5 to 5 µM | 0.5 to 5 µM | 1.2 to 1.5 |
| Cn1ncc(Cl)c1CC1c2ccccc2C(=O)N1C[C@@H]1CC1c1c[nH]nn1 (stereo in doubt) [Compound 548, trans 2-((2-(1H-1,2,3-triazol-4-yl)cyclopropyl)methyl)-3-((4-chloro-1-methyl-1H-pyrazol-5-yl)methyl)isoindolin-1-one] |  | B (3≥B>2) | < 0.5 µM | > 1.5 |  |  |  |
| O=c1c2ccccc2ccn1Cc1ccc(O)cc1 [Compound 1, 2-(4-hydroxybenzyl)isoquinolin-1(2H)-one] |  | A (A>3) |  |  | ≥ 5 µM | 0.5 to 5 µM | > 1.5 |
| O=C1c2ccccc2CCN1Cc1ccc(O)cc1 [Compound 2, 2-(4-hydroxybenzyl)-3,4-dihydroisoquinolin-1(2H)-one] |  | A (A>3) |  |  | 0.5 to 5 µM | 0.5 to 5 µM | > 1.5 |
| O=C1CCc2ccccc2N1Cc1ccc(O)cc1 [Compound 3, 1-(4-hydroxybenzyl)-3,4-dihydroquinolin-2(1H)-one] |  | B (3≥B>2) |  |  | ≥ 5 µM | 5 to 50 µM | 1.2 to 1.5 |
| O=c1[nH]c2ccc(Cn3ccc4ccccc4c3=O)cc2o1 [Compound 4, 6-((1-oxoisoquinolin-2(1H)-yl)methyl)benzo[d]oxazol-2(3H)-one] |  | B (3≥B>2) |  |  | ≥ 5 µM | 5 to 50 µM | 1.2 to 1.5 |
| O=c1ccc2ccccc2n1Cc1ccc(O)cc1 [Compound 5, 1-(4-hydroxybenzyl)quinolin-2(1H)-one] |  | A (A>3) |  |  | ≥ 5 µM | 0.5 to 5 µM | 1.2 to 1.5 |
| O=c1c2ccccc2ccn1Cc1ccc2[nH]nnc2c1 [Compound 7, 2-((1H-benzo[d][1,2,3]triazol-5-yl)methyl)isoquinolin-1(2H)-one] |  | B (3≥B>2) |  |  | ≥ 5 µM | 5 to 50 µM | 1.2 to 1.5 |
| O=c1[nH]c2ccc(CN3Cc4ccccc4S3(=O)=O)cc2o1 [Compound 9, 6-((1,1-dioxidobenzo[d]isothiazol-2(3H)-yl)methyl)benzo[d]oxazol-2(3H)-one] |  | B (3≥B>2) |  |  | 0.5 to 5 µM | 0.5 to 5 µM | > 1.5 |
| O=C1c2ccccc2C(=O)N1Cc1ccc(O)cc1 [Compound 11, 2-(4-hydroxybenzyl)isoindoline-1,3-dione] |  | B (3≥B>2) |  |  | ≥ 5 µM | 5 to 50 µM | 1.2 to 1.5 |
| O=C1c2ccccc2CN1Cc1ccc(O)cc1 [Compound 12, 2-(4-hydroxybenzyl)isoindolin-1-one] |  | B (3≥B>2) |  |  | ≥ 5 µM | 5 to 50 µM | 1.2 to 1.5 |
| Cc1ccc2c(c1)C(=O)N(Cc1ccc(O)cc1)C2=O [Compound 14, 2-(4-hydroxybenzyl)-5-methylisoindoline-1,3-dione] |  | B (3≥B>2) |  |  | 0.5 to 5 µM | 0.5 to 5 µM | 1.2 to 1.5 |
| O=C1c2ccc(Nc3ccccc3)cc2C(=O)N1Cc1ccc(O)cc1 [Compound 15, 2-(4-hydroxybenzyl)-5-(phenylamino)isoindoline-1,3-dione] |  | B (3≥B>2) |  |  | 0.5 to 5 µM | < 0.5 µM | ≤ 1.2 |
| O=C1c2ccc(Br)cc2C(=O)N1Cc1ccc(O)cc1 [Compound 16, 5-bromo-2-(4-hydroxybenzyl)isoindoline-1,3-dione] |  | A (A>3) |  |  | ≥ 5 µM | 0.5 to 5 µM | ≤ 1.2 |
| Cn1ncc(Cl)c1CC1c2ccccc2C(=O)N1Cc1nn[nH]c1F (centres unmarked) [Compound 630, 3-((4-chloro-1-methyl-1H-pyrazol-5-yl)methyl)-2-((5-fluoro-1H-1,2,3-triazol-4-yl)methyl)isoindolin-1-one] | ≥ 5 µM | C (2≥C) |  |  |  |  |  |
| Cn1ncc(Cl)c1CC1c2ccccc2C(=O)N1CCc1ccc(=O)[nH]c1 (centres unmarked) [Compound 636, 3-((4-chloro-1-methyl-1H-pyrazol-5-yl)methyl)-2-(2-(6-oxo-1,6-dihydropyridin-3-yl)ethyl)isoindolin-1-one] | ≥ 5 µM | C (2≥C) |  |  |  |  |  |
| COc1ccc(CN2C(Cc3c(Cl)cnn3C)c3ccccc3S2(=O)=O)cn1 (centres unmarked) [Compound 642, 3-((4-chloro-1-methyl-1H-pyrazol-5-yl)methyl)-2-((6-methoxypyridin-3-yl)methyl)-2,3-dihydrobenzo[d]isothiazole 1,1-dioxide] | ≥ 5 µM | B (3≥B>2) |  |  |  |  |  |
| [2H]C([2H])(C1CC2(CNC(=O)O2)C1)N1C(=O)c2ccccc2C1Cc1c(Cl)cnn1C (centres unmarked) [Compound 643, 2-((1-((4-chloro-1-methyl-1H-pyrazol-5-yl)methyl)-3-oxoisoindolin-2-yl)methyl-d)-5-oxa-7-azaspiro[3.4]octan-6-one] | 0.5 to 5 µM | B (3≥B>2) |  |  |  |  |  |
